These compounds were tested against T1, rat CB-1 receptor (Rattus norvegicus, UniProt P20272) (assay: rat cannabinoid-1 receptor (CB1R) binding affinity assay). Details: not given.
T1 construct: The tissue obtained from the brain of SD rats was homogenized; from tissue; host or cells: SD rat brain membrane homogenate
Description: The tissue obtained from the brain of SD rats was homogenized with a Dounce homogenate system in TME(50 mM Tris, 3 mM MgCl2 and 1 mM EDTA, pH 7.4) at 4° C., and the homogenate was centrifuged at 48,000 g for 30 min. at 4° C. The pellet was resuspended in 5 ml of TME and the suspension was divided into aliquots and stored at −70° C. until its use in the following assay.
The tissue concentrations were determined by Bradford protein analysis, and 148 μl of brain tissue of the required concentration was added to the plate. The plate was covered and placed in a 30° C. incubator for 60 min, and then transformed on GF/B filtermat pretreated in polyethylenimine (PEI) using a cell harvester. Each filter was washed five times and dried at 60° C. for 1 hr. Then, the degree of radioactivity retained by the filter was measured using Wallac Microbeta™ (PerkinElmer Life Sciences, Inc., Massachusetts, U.S.A.) and the activity of the compound for inhibiting CB1 receptor was determined therefrom.

T1 sequence (P20272 whole entry): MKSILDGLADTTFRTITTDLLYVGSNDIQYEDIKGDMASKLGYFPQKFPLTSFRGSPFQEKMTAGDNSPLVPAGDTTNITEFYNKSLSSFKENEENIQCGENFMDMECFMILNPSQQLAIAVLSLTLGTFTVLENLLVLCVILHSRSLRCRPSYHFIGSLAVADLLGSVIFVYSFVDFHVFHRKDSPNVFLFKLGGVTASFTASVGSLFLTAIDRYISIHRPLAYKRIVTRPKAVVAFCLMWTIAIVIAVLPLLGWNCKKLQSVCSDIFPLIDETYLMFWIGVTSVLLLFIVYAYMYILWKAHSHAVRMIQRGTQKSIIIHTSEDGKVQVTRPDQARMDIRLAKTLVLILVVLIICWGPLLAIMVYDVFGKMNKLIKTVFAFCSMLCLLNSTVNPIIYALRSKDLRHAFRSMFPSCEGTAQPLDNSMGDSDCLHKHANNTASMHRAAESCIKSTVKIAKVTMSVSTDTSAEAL

SMILES	IC50 [nM]
CSc1c(-c2nnc(C3(C(F)(F)F)CC3)o2)nn(-c2ccccc2Cl)c1-c1ccc(Br)cc1 [Example 14, 2-(5-(4-bromophenyl)-1-(2-chlorophenyl)-4-(methylthio)-1H-pyrazol-3-yl)-5-(1-(trifluoromethyl)cyclopropyl)-1,3,4-oxadiazole]	4.11
CSc1c(-c2nnc(C3(C(F)(F)F)CCC3)s2)nn(-c2ccc(Cl)cc2Cl)c1-c1ccc(Cl)cc1 [Example 23, 2-(5-(4-chlorophenyl)-1-(2,4-dichlorophenyl)-4-(methylthio)-1H-pyrazol-3-yl)-5-(1-(trifluoromethyl)cyclobutyl)-1,3,4-thiadiazole]	7.31
CSc1c(-c2nnc(C3(c4ccc(Cl)cc4)CC3)s2)nn(-c2ccc(Cl)cc2Cl)c1-c1ccc(Cl)cc1 [Example 24, 2-(5-(4-chlorophenyl)-1-(2,4-dichlorophenyl)-4-(methylthio)-1H-pyrazol-3-yl)-5-(1-(4-chlorophenyl)cyclopropyl)-1,3,4-thiadiazole]	6.66
CSc1c(-c2nnc(C3(C(F)(F)F)CCC3)s2)nn(-c2ccccc2Cl)c1-c1ccc(Br)cc1 [Example 35, 2-(5-(4-bromophenyl)-1-(2-chlorophenyl)-4-(methylthio)-1H-pyrazol-3-yl)-5-(1-(trifluoromethyl)cyclobutyl)-1,3,4-thiadiazole]	7.77

Same assay, conditions: [3H]CP-55940 radioligand, SD rat brain tissue homogenate, 30° C., 60 min; read-out: IC50

SMILES	IC50 [nM]
CSc1c(-c2nnc(C(C)(C)C)o2)nn(-c2ccc(Cl)cc2Cl)c1-c1ccc(Cl)cc1 [Example 1, 2-tert-butyl-5-(5-(4-chlorophenyl)-1-(2,4-dichlorophenyl)-4-(methylthio)-1H-pyrazol-3-yl)-1,3,4-oxadiazole]	6.26
CSc1c(-c2nnc(C3(C(F)(F)F)CC3)o2)nn(-c2ccc(Cl)cc2Cl)c1-c1ccc(Cl)cc1 [Example 2, 2-(5-(4-chlorophenyl)-1-(2,4-dichlorophenyl)-4-(methylthio)-1H-pyrazol-3-yl)-5-(1-(trifluoromethyl)cyclopropyl)-1,3,4-oxadiazole]	6.63
CSc1c(-c2nnc(C3(C(F)(F)F)CCC3)o2)nn(-c2ccc(Cl)cc2Cl)c1-c1ccc(Cl)cc1 [Example 3, 2-(5-(4-chlorophenyl)-1-(2,4-dichlorophenyl)-4-(methylthio)-1H-pyrazol-3-yl)-5-(1-(trifluoromethyl)cyclobutyl)-1,3,4-oxadiazole]	9.71
CSc1c(-c2nnc(C3(c4ccc(Cl)cc4)CC3)o2)nn(-c2ccc(Cl)cc2Cl)c1-c1ccc(Cl)cc1 [Example 4, 2-(5-(4-chlorophenyl)-1-(2,4-dichlorophenyl)-4-(methylthio)-1H-pyrazol-3-yl)-5-(1-(4-chlorophenyl)cyclopropyl)-1,3,4-oxadiazole]	5.26
CSc1c(-c2nnc(C3(C(F)(F)F)CC3)o2)nn(-c2ccccc2Cl)c1-c1ccc(Cl)cc1 [Example 6, 2-(1-(2-chlorophenyl)-5-(4-chlorophenyl)-4-(methylthio)-1H-pyrazol-3-yl)-5-(1-(trifluoromethyl)cyclopropyl)-1,3,4-oxadiazole]	8.3
CSc1c(-c2nnc(C3(C(F)(F)F)CCC3)o2)nn(-c2ccccc2Cl)c1-c1ccc(Cl)cc1 [Example 7, 2-(1-(2-chlorophenyl)-5-(4-chlorophenyl)-4-(methylthio)-1H-pyrazol-3-yl)-5-(1-(trifluoromethyl)cyclobutyl)-1,3,4-oxadiazole]	4.21
CSc1c(-c2nnc(C3(c4ccc(Cl)cc4)CC3)o2)nn(-c2ccccc2Cl)c1-c1ccc(Cl)cc1 [Example 8, 2-(1-(2-chlorophenyl)-5-(4-chlorophenyl)-4-(methylthio)-1H-pyrazol-3-yl)-5-(1-(4-chlorophenyl)cyclopropyl)-1,3,4-oxadiazole]	4.61
CSc1c(-c2nnc(C(C)(C)C)o2)nn(-c2ccc(Cl)cc2Cl)c1-c1ccc(Br)cc1 [Example 9, 2-(5-(4-bromophenyl)-1-(2,4-dichlorophenyl)-4-(methylthio)-1H-pyrazol-3-yl)-5-tert-butyl-1,3,4-oxadiazole]	5.5
CSc1c(-c2nnc(C3(C(F)(F)F)CC3)o2)nn(-c2ccc(Cl)cc2Cl)c1-c1ccc(Br)cc1 [Example 10, 2-(5-(4-bromophenyl)-1-(2,4-dichlorophenyl)-4-(methylthio)-1H-pyrazol-3-yl)-5-(1-(trifluoromethyl)cyclopropyl)-1,3,4-oxadiazole]	7.95
CSc1c(-c2nnc(C3(C(F)(F)F)CCC3)o2)nn(-c2ccc(Cl)cc2Cl)c1-c1ccc(Br)cc1 [Example 11, 2-(5-(4-bromophenyl)-1-(2,4-dichlorophenyl)-4-(methylthio)-1H-pyrazol-3-yl)-5-(1-(trifluoromethyl)cyclobutyl)-1,3,4-oxadiazole]	8.44
CSc1c(-c2nnc(C3(c4ccc(Cl)cc4)CC3)o2)nn(-c2ccc(Cl)cc2Cl)c1-c1ccc(Br)cc1 [Example 12, 2-(5-(4-bromophenyl)-1-(2,4-dichlorophenyl)-4-(methylthio)-1H-pyrazol-3-yl)-5-(1-(4-chlorophenyl)cyclopropyl)-1,3,4-oxadiazole]	9.23
CSc1c(-c2nnc(C(C)(C)C)s2)nn(-c2ccc(Cl)cc2Cl)c1-c1ccc(Cl)cc1 [Example 21, 2-tert-butyl-5-(5-(4-chlorophenyl)-1-(2,4-dichlorophenyl)-4-(methylthio)-1H-pyrazol-3-yl)-1,3,4-thiadiazole]	5.19
CSc1c(-c2nnc(C3(C(F)(F)F)CC3)s2)nn(-c2ccc(Cl)cc2Cl)c1-c1ccc(Cl)cc1 [Example 22, 2-(5-(4-chlorophenyl)-1-(2,4-dichlorophenyl)-4-(methylthio)-1H-pyrazol-3-yl)-5-(1-(trifluoromethyl)cyclopropyl)-1,3,4-thiadiazole]	10.9
CSc1c(-c2nnc(C3(C(F)(F)F)CC3)s2)nn(-c2ccc(Cl)cc2Cl)c1-c1ccc(Br)cc1 [Example 30, 2-(5-(4-bromophenyl)-1-(2,4-dichlorophenyl)-4-(methylthio)-1H-pyrazol-3-yl)-5-(1-(trifluoromethyl)cyclopropyl)-1,3,4-thiadiazole]	14.8
CSc1c(-c2nnc(C(C)(C)C)s2)nn(-c2ccccc2Cl)c1-c1ccc(Br)cc1 [Example 33, 2-(5-(4-bromophenyl)-1-(2-chlorophenyl)-4-(methylthio)-1H-pyrazol-3-yl)-5-tert-butyl-1,3,4-thiadiazole]	5.7
CSc1c(-c2nnc(C3(C(F)(F)F)CC3)s2)nn(-c2ccccc2Cl)c1-c1ccc(Br)cc1 [Example 34, 2-(5-(4-bromophenyl)-1-(2-chlorophenyl)-4-(methylthio)-1H-pyrazol-3-yl)-5-(1-(trifluoromethyl)cyclopropyl)-1,3,4-thiadiazole]	17.1
C[S+]([O-])c1c(-c2nnc(C(C)(C)C)o2)nn(-c2ccc(Cl)cc2Cl)c1-c1ccc(Cl)cc1 (stereo not shown) [Example 41, 2-tert-butyl-5-(5-(4-chlorophenyl)-1-(2,4-dichlorophenyl)-4-(methylsulfinyl)-1H-pyrazol-3-yl)-1,3,4-oxadiazole]	30.4
C[S+]([O-])c1c(-c2nnc(C3(C(F)(F)F)CC3)o2)nn(-c2ccc(Cl)cc2Cl)c1-c1ccc(Cl)cc1 (stereo not shown) [Example 42, 2-(5-(4-chlorophenyl)-1-(2,4-dichlorophenyl)-4-(methylsulfinyl)-1H-pyrazol-3-yl)-5-(1-(trifluoromethyl)cyclopropyl)-1,3,4-oxadiazole]	24.6
C[S+]([O-])c1c(-c2nnc(C3(C(F)(F)F)CCC3)o2)nn(-c2ccc(Cl)cc2Cl)c1-c1ccc(Cl)cc1 (stereo not shown) [Example 43, 2-(5-(4-chlorophenyl)-1-(2,4-dichlorophenyl)-4-(methylsulfinyl)-1H-pyrazol-3-yl)-5-(1-(trifluoromethyl)cyclobutyl)-1,3,4-oxadiazole]	8.92
C[S+]([O-])c1c(-c2nnc(C(C)(C)C)o2)nn(-c2ccccc2Cl)c1-c1ccc(Br)cc1 (stereo not shown) [Example 53, 2-(5-(4-bromophenyl)-1-(2-chlorophenyl)-4-(methylsulfinyl)-1H-pyrazol-3-yl)-5-tert-butyl-1,3,4-oxadiazole]	15.6
C[S+]([O-])c1c(-c2nnc(C3(C(F)(F)F)CCC3)o2)nn(-c2ccccc2Cl)c1-c1ccc(Br)cc1 (stereo not shown) [Example 55, 2-(5-(4-bromophenyl)-1-(2-chlorophenyl)-4-(methylsulfinyl)-1H-pyrazol-3-yl)-5-(1-(trifluoromethyl)cyclobutyl)-1,3,4-oxadiazole]	6.51
C[S+]([O-])c1c(-c2nnc(C(C)(C)C)s2)nn(-c2ccc(Cl)cc2Cl)c1-c1ccc(Cl)cc1 (stereo not shown) [Example 60, 2-tert-butyl-5-(5-(4-chlorophenyl)-1-(2,4-dichlorophenyl)-4-(methylsulfinyl)-1H-pyrazol-3-yl)-1,3,4-thiadiazole]	19.1
C[S+]([O-])c1c(-c2nnc(C3(C(F)(F)F)CC3)s2)nn(-c2ccc(Cl)cc2Cl)c1-c1ccc(Cl)cc1 (stereo not shown) [Example 61, 2-(5-(4-chlorophenyl)-1-(2,4-dichlorophenyl)-4-(methylsulfinyl)-1H-pyrazol-3-yl)-5-(1-(trifluoromethyl)cyclopropyl)-1,3,4-thiadiazole]	11.3
C[S+]([O-])c1c(-c2nnc(C3(C(F)(F)F)CCC3)s2)nn(-c2ccc(Cl)cc2Cl)c1-c1ccc(Cl)cc1 (stereo not shown) [Example 62, 2-(5-(4-chlorophenyl)-1-(2,4-dichlorophenyl)-4-(methylsulfinyl)-1H-pyrazol-3-yl)-5-(1-(trifluoromethyl)cyclobutyl)-1,3,4-thiadiazole]	4.12
